Test results from patent publication US20130210911A1, “METHOD AND COMPOSITION FOR TREATING A DISEASE OR CONDITION RELATED TO OREXIN RECEPTOR 1, OREXIN RECEPTOR 2, SOMATOSTATIN RECEPTOR 2 OR DOPAMINE D2L RECEPTOR” (CENTER LABORATORIES, INC., priority 2009, published 2013).
Structures can show the parent of a compound that is named as a salt. Where two headings read alike, the source gives them in different places.

Tests used:
Orexin receptor 1 = biological target: T1, Orexin receptor 1 (Homo sapiens, UniProt O43613); assay: biochemical; settings: for nH (Hill coefficient): human orexin receptor 1 binding
T1 sequence (O43613 1-425): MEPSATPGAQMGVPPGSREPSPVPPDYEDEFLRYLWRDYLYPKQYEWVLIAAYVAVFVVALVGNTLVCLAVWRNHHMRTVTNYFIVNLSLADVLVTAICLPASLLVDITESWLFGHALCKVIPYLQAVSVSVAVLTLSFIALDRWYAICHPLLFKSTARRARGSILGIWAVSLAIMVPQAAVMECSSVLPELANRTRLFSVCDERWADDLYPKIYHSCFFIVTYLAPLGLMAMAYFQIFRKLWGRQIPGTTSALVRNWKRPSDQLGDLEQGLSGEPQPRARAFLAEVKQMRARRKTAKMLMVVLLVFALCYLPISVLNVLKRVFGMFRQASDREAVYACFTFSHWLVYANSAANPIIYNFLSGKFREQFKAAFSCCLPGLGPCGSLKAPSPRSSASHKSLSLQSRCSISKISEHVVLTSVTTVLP
Method: (§1) Binding activity was evaluated to assess the selectivity of verapamil on various receptors. The binding activity of the reported receptors was analyzed using the following known methods. Primary screening were performed in duplicate and presented in semi-quantitative data (e.g., IC50, Ki and nH). Where presented, IC50 values were determined by a non-linear, least squares regression analysis using MathIQ™ (ID Bussiness Solutions Ltd., UK). […] Where presented, the Hill coefficient (nH), defining the slope of the competitive binding curve, was calculated using MathIQ™.
(§2) Orexin receptor 1 or 2 binding affinity was examined using the methods disclosed by Kukkonen et al., (2002) Am J Physiol Cell Physiol. 283:C1567-C1591; and Langmead et al., (2004) Br J Pharmacol. 141(2):340-346. […] Pharmacol. 58:254-264; and Spedding. (1984) M. Eur J Pharmacol. 83:211. Somaostatin receptor 2 binding activity was estimated by the method described by Feniuk et al., (1993) Br J Pharmacol. 110:1156-1164. Adenosine receptor binding activity was examined using the method described by Varani et al., (1996) Br J Pharmacol. 117:1693-1701. Bradykinin receptor binding activity was examined using the methods described by Horlick et al., (1999) Immunopharmacology 43(2-3):169-177; and Phagoo et al., (2001) J Pharmacol Exp Ther 298(1):77-85. Calcium channel (N-type) binding activity was examined using the method disclosed by Moresco et al., (1990) Neurobiol of Aging. 11(4):433-436. Cannabinoid receptor binding activity was examined using the method disclosed by Reggio et al., (1998) J Med Chem 41(26):5177-5187. […] Estrogen receptors (including ERα and ERβ) were examined using the method disclosed by Obourn et al., (1993) Biochem 32:6229-6236. GABA receptor (including GABAA and GABAB1A,) binding activity was examined using methods disclosed by Lewin et al., (1989) Mol Pharmacol 35:189-194; Maksay G. (1993) Eur J Pharmacol 246:255-260; Enna and Snyder, (1977) Mol Pharmacol. 13:442-453; Martini et al., (1983) J Neurochem. […] Leptin receptor binding activity was examined using the method disclosed by Fong et al., (1998) Mol Pharmacol 53:234-240. […] 75(6):2590-2601. Tachykinin receptor binding activity was examined using the method disclosed by Patacchini and Maggi, (1995) Arch Int Pharmacodyn. 329:161-184. Vanilloid receptor binding activity was examined using the methods disclosed by Szallasi et al., (1993) J Pharmacol Exp Ther. 267(2):728-733. Melatonin receptor binding activity was examined using the methods disclosed by Beresford et al., (1998) J Pharmacol Exp Ther 285(3):1239-1245; and Paul et al., (1999) J Pharmacol Exp Ther 290(1):334-340. Serotonin receptor binding activity was examined using the methods disclosed by Bonhaus et al., (1995) Br J Pharmacol 115:622-628; and Saucier and Albert (1997) J. Neuorchem 68:1998-2011.

Orexin receptor 2 = biological target: T2, Orexin receptor 2 (Homo sapiens, UniProt O43614); assay: biochemical; settings: for nH (Hill coefficient): human orexin receptor 2 binding
T2 sequence (O43614 1-444): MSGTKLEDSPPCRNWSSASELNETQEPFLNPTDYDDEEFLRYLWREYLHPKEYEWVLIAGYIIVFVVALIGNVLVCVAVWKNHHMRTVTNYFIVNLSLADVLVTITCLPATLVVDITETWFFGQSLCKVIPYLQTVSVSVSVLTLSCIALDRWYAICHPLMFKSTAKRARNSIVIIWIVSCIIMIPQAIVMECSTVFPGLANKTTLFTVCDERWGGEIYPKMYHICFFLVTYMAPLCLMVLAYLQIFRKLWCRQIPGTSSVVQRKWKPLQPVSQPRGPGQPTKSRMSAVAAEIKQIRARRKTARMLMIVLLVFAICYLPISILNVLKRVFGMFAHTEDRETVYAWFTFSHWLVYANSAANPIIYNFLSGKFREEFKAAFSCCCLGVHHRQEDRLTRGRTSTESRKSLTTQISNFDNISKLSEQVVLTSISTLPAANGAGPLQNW
Method: as §1, §2

Sodium Channel, Site 2 = assay: Sodium channel, site 2 binding assay; parameters: species or system rat
Somatostatin receptor 2 = Somatostatin receptor 2 (Cavia porcellus, UniProt A0A286XKC5); assay: Somatostatin tissue assay; settings: guinea pig tissue
Description: (§3) Orexin receptor 1 or 2 binding affinity was examined using the methods disclosed by Kukkonen et al., (2002) Am J Physiol Cell Physiol. 283:C1567-C1591; and Langmead et al., (2004) Br J Pharmacol. 141(2):340-346. […] Pharmacol. 58:254-264; and Spedding. (1984) M. Eur J Pharmacol. 83:211. Somaostatin receptor 2 binding activity was estimated by the method described by Feniuk et al., (1993) Br J Pharmacol. 110:1156-1164. Adenosine receptor binding activity was examined using the method described by Varani et al., (1996) Br J Pharmacol. 117:1693-1701. Bradykinin receptor binding activity was examined using the methods described by Horlick et al., (1999) Immunopharmacology 43(2-3):169-177; and Phagoo et al., (2001) J Pharmacol Exp Ther 298(1):77-85. Calcium channel (N-type) binding activity was examined using the method disclosed by Moresco et al., (1990) Neurobiol of Aging. 11(4):433-436. Cannabinoid receptor binding activity was examined using the method disclosed by Reggio et al., (1998) J Med Chem 41(26):5177-5187. […] Estrogen receptors (including ERα and ERβ) were examined using the method disclosed by Obourn et al., (1993) Biochem 32:6229-6236. […]

Dopamine D2L receptor = Dopamine D2L receptor (Homo sapiens, UniProt P14416)
Description: as §3

N-type calcium channel = N-type calcium channel (Rattus norvegicus, UniProt Q02294); assay: Calcium channel (N-type) binding activity; settings: data not shown
Description: (§4) Pharmacol. 58:254-264; and Spedding. (1984) M. Eur J Pharmacol. 83:211. […] 11(4):433-436. […] 75(6):2590-2601. […] 329:161-184.

Serotonin receptor = settings: data not shown
Method: as §1
Orexin receptor 1 or 2 binding affinity was examined using the methods disclosed by Kukkonen et al., (2002) Am J Physiol Cell Physiol. 283:C1567-C1591; and Langmead et al., (2004) Br J Pharmacol. 141(2):340-346. […] Pharmacol. 58:254-264; and Spedding. (1984) M. Eur J Pharmacol. 83:211. Somaostatin receptor 2 binding activity was estimated by the method described by Feniuk et al., (1993) Br J Pharmacol. 110:1156-1164. Adenosine receptor binding activity was examined using the method described by Varani et al., (1996) Br J Pharmacol. 117:1693-1701. Bradykinin receptor binding activity was examined using the methods described by Horlick et al., (1999) Immunopharmacology 43(2-3):169-177; and Phagoo et al., (2001) J Pharmacol Exp Ther 298(1):77-85. […]

Melatonin receptor = Melatonin receptor binding activity; settings: data not shown
Description: as §4

N-type calcium channel, sequence (P54287 whole entry): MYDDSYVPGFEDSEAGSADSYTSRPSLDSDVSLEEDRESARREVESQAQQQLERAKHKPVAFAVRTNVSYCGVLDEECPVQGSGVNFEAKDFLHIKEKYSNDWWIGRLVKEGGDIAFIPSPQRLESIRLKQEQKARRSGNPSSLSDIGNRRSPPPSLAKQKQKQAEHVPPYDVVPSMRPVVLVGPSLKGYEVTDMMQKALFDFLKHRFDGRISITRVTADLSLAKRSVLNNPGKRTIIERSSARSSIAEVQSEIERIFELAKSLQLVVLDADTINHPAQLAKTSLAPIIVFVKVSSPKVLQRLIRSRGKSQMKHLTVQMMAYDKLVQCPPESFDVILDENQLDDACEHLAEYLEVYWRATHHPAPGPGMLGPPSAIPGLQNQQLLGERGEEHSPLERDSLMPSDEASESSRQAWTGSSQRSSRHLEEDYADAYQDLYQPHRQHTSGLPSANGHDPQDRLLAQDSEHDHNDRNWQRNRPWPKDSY
N-type calcium channel, sequence (P54290 945-1091, further chain): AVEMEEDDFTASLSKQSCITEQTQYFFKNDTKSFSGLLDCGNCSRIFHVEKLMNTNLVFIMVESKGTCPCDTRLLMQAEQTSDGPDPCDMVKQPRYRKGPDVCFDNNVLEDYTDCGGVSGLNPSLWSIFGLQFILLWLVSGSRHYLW
N-type calcium channel, sequence (Q02294 whole entry): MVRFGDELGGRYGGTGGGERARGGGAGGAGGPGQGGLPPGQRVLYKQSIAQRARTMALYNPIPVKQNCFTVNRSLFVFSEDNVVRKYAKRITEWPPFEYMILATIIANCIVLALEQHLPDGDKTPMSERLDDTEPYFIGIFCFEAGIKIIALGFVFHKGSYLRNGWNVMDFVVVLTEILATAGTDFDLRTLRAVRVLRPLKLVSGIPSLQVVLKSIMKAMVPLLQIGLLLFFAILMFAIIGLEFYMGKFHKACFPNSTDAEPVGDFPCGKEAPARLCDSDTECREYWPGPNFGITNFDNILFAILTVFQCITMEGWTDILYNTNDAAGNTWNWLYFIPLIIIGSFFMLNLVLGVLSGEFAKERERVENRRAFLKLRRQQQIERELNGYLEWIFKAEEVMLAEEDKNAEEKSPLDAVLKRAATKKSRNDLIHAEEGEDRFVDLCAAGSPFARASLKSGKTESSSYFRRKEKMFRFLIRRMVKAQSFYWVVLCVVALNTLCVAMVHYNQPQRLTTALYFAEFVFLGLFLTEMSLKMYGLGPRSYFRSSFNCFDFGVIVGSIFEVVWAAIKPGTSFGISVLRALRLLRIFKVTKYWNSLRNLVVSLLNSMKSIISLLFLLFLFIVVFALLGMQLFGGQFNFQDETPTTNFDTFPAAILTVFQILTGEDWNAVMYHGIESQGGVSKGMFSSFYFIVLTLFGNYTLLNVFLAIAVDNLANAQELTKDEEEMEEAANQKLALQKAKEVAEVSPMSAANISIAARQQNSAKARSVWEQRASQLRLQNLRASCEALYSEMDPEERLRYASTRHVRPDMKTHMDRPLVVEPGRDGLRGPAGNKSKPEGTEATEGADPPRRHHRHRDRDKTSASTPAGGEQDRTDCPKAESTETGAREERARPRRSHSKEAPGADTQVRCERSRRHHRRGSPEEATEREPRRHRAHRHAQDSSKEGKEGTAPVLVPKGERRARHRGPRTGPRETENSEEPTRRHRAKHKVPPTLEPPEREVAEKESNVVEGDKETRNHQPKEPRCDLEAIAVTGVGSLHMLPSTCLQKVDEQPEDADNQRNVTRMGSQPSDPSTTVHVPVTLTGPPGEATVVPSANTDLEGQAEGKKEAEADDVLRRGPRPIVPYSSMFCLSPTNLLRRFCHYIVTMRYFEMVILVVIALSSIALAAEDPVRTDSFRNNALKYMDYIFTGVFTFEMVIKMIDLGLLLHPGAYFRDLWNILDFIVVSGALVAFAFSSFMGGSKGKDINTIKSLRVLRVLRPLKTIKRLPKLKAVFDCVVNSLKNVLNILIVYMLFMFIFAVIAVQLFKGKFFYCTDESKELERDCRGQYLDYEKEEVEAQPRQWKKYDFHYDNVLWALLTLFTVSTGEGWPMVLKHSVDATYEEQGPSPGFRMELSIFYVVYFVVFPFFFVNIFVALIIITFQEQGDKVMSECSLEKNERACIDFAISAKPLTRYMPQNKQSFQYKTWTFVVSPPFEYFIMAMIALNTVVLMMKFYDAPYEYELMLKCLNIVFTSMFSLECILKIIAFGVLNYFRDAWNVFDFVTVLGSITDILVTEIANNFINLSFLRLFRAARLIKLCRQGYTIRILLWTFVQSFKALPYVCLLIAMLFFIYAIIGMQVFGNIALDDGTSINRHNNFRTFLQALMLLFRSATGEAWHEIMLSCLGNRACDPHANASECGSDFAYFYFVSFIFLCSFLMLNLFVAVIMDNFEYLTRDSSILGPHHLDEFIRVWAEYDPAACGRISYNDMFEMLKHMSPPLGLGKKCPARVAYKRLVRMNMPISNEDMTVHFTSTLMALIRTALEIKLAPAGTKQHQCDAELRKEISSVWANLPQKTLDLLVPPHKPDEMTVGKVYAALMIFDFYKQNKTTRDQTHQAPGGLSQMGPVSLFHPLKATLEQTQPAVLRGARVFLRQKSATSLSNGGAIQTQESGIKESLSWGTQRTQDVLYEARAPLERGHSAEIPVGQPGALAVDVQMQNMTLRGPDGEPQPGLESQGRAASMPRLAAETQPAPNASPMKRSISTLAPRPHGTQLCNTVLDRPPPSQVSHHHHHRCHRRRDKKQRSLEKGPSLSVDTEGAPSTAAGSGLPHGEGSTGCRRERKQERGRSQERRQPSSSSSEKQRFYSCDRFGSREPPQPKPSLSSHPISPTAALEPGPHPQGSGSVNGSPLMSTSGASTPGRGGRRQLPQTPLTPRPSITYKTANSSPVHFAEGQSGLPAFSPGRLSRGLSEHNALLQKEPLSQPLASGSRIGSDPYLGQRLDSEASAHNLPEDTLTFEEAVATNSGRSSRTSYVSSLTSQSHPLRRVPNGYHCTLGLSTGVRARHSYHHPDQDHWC
N-type calcium channel, sequence (P54290 25-944, further chain): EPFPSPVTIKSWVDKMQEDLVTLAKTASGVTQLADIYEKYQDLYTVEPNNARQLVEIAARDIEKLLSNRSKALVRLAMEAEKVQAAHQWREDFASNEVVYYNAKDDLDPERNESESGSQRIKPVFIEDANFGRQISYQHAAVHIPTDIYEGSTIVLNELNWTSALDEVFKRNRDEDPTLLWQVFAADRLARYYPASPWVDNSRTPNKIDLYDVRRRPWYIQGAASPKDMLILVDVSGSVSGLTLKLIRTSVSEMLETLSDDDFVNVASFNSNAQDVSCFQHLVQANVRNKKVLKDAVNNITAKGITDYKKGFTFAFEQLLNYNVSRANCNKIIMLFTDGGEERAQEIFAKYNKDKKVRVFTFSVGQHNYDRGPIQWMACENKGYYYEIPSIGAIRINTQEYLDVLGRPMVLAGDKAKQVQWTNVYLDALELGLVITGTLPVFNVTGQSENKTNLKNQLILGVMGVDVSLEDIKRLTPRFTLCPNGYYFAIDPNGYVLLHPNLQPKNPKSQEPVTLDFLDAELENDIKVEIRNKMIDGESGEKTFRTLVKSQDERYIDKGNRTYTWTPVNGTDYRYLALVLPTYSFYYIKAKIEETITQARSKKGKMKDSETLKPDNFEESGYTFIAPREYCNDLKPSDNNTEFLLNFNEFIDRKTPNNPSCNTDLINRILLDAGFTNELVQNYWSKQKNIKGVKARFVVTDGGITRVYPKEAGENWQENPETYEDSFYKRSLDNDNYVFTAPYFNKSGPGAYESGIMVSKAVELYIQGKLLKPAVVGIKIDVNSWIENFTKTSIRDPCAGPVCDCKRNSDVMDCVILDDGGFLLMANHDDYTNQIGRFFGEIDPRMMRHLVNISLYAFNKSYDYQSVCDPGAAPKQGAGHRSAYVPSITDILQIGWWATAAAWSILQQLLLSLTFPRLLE
Dopamine D2L receptor, sequence (P14416 whole entry): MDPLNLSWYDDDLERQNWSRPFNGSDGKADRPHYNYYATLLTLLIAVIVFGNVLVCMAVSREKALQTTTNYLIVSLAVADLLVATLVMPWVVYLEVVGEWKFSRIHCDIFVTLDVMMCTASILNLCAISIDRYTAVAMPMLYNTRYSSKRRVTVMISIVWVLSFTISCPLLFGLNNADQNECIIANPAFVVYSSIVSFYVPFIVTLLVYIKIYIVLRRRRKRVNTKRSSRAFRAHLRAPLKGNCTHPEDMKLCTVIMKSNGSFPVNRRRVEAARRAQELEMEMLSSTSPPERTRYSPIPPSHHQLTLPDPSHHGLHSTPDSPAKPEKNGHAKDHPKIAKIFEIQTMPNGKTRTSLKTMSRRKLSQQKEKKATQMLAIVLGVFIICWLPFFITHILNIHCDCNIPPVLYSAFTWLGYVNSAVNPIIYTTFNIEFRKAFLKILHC
Somatostatin receptor 2, sequence (A0A286XKC5 1-368): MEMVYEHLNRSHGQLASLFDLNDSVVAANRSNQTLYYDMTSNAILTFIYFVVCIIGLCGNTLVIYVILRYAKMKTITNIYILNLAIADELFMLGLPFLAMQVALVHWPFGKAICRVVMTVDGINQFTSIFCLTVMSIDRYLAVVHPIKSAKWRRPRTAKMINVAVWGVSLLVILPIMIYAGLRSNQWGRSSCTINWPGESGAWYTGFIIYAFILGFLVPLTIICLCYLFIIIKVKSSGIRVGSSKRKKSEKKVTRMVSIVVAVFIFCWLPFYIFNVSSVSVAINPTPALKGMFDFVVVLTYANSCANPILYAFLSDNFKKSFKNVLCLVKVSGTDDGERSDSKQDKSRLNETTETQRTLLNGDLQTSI

| Structure (SMILES) | inhibition at 300 µM (Orexin receptor 1) [%] | nH (Hill coefficient) (Orexin receptor 1) | inhibition at 100 µM (Orexin receptor 2) [%] | nH (Hill coefficient) (Orexin receptor 2) | % Inhibition (Sodium Channel, Site 2; rat sodium channel site 2, conc. 10 μM) [%] | AG. (%) (agonist) (Somatostatin receptor 2; conc. 3 μM) | ANT. (%) (antagonist) (Dopamine D2L receptor; conc. 10 μM) | binding (in words) (N-type calcium channel) | binding (in words) (Serotonin receptor) | binding (in words) (Melatonin receptor) | inhibition at 100 µM (Orexin receptor 1) [%] | % Inhibition (Sodium Channel, Site 2; rat sodium channel site 2, conc. 3 μM) [%] | AG. (%) (agonist) (Somatostatin receptor 2; conc. 0.3 μM) | ANT. (%) (antagonist) (Dopamine D2L receptor; conc. 3 μM) |
| --- | --- | --- | --- | --- | --- | --- | --- | --- | --- | --- | --- | --- | --- | --- |
| COc1ccc(CCN(C)CCC[C@](C#N)(c2ccc(OC)c(OC)c2)C(C)C)cc1OC [(R)-(+)-verapamil hydrochloride] | 57 | 1.31 | 56 | 1.81 | 72 | 69 | 58 | significant binding | significant binding | significant binding |  |  |  |  |
| COc1ccc(CCN(C)CCC[C@@](C#N)(c2ccc(OC)c(OC)c2)C(C)C)cc1OC [(S)-(−)-verapamil hydrochloride] |  | 1.27 | 79 | 1.33 |  |  |  | significant binding | significant binding | significant binding | 58 | 75 | 61 | 66 |
